The values that follow are results of earlier work, collected in patent US20100035998A1, “COMBINATION S-NITROSOTHIOL PHARMACEUTICAL PRODUCTS FOR RESTORING NORMAL BREATHING RHYTHMS” (Galleon Pharmaceutical, Inc, priority 2005, published 2010).

The subject of series [1] is upper airway tone. The following applies: animals.
Series [2] relates to patients that had predominantly obstructive sleep apnea. The note with it: low doses; patients with predominantly obstructive sleep apnea.
Series [3] deals with central apnea patients. The following applies: low doses.

The structures appear in SMILES notation.

With `CN1CCN2c3ncccc3Cc3ccccc3C2C1` (stereo not shown) [Mirtazapine], in series [1], the “effect on tone of the upper airway” value was “help restore the tone of the upper airway to prevent collapse”.
As for `CC(=O)Nc1nnc(S(N)(=O)=O)s1` [acetazolamide], in series [2], the “reduction in apnea episodes” value is reported as “about 25%”. The “apnea episodes after one month of treatment” value in series [3] (25.5 pre-treatment) is given as 6.8. Further, the “decrease in apnea episodes” value in series [3] (pre-treatment vs after one month of treatment) is reported as 73%.
